In patent US20100074897A1, “Methods and Compositions related to HIF-1 alpha” (University of Utah Research Foundation, priority 2006, published 2010):

How the values were obtained:
[1] = tested on: NBS1; test: NBS1 mRNA levels by real-time PCR in HCT116 cells; type: cell-based, human
Experimental: HCT116 TP53^+/+, HCT116 TP53^−/− cells (Koshiji et al., 2004), and U-2 OS were grown in McCoy's 5A medium (Invitrogen), and HeLa cells in DMEM. For hypoxic treatment, cells were incubated in a hypoxic chamber (Innova CO-48, New Brunswick Scientific) maintaining 1% O2 and 5% CO2. Recombinant adenovirus generation and infection were as previously described (Koshiji et al., 2004).
Total RNA extraction, reverse transcription, and quantitative PCR were performed essentially as described previously (Koshiji et al., 2005). Taqman Gene Expression Assay kits for NBS1, MRE11A, RAD50, MSH2, and ACTB were purchased from Applied Biosystems. All experiments were repeated three times in triplicates, and representative results were presented as means±standard errors.

[2] = tested on: CDC25A; test: CDC25A and PGK1 mRNA by real-time RT-PCR in siRNA-transfected HCT116 cells; type: cell-based, human; details: siRNA 24 h then hypoxia 16 h
Experimental: Real-Time RT-PCR. Real-time RT-PCR was performed essentially as described previously (Koshiji et al. 2005). Primer and probe (Applied Biosystems) sequences were as follows: CDC25A, forward 5′-[…]-3′ (SEQ ID NO: 25), reverse 5′-[…]-3′ (SEQ ID NO: 26), probe 5′-FAM-[…]-MGB-3′ (SEQ ID NO: 27). PGK-1 (FAM-MGB probe) and ACTB (VIC-MGB probe) were detected with endogenous control reagents from Applied Biosystems. β-actin primers and probe were included into each reaction for normalization. All the experiments were repeated three times in triplicate, and representative results were presented in mean±standard error.
(§1) RNA Interference. Transfection with siRNA duplexes and siRNA sequence information were described previously (Koshiji et al. 2005). CHK1 siRNA was described previously (Zhao et al. 2002). Luciferase siRNA was used as negative control.

[3] = tested on: HIF-2α; test: Western blot after siRNA transfection of HCT116 cells; type: cell-based, human
Experimental: Western Blot. Western blot analysis was carried out as described previously.
as §1

[4] = tested on: U-2 OS cells; test: immunofluorescent staining of γ-H2AX foci (DNA DSBs); type: cell-based
Experimental: To ascertain the functional relevance of NBS1 repression by hypoxia, the extent of DNA damage was assessed by immunofluorescent staining of γ-H2AX foci, a most sensitive method for quantifying DNA DSBs (Rogakou et al, 1998, 1999). […] Furthermore, results also show strikingly colocalized foci of γ-H2AX and 53BP1, the latter of which is known to interact with various DNA repair proteins including γ-H2AX in response to DSBs (Schultz et al, 2000). Thus, hypoxic cells experience DNA DSBs, presumably resulting from the NBS1 repression.
Immunofluorescence staining was performed essentially as described previously (Rogakou et al, 1999) with mouse anti-γ-H2AX antibody (Upstate) and rabbit anti-53BP1 (Novus Biologicals). Secondary antibodies were anti-mouse Alexa-546 and anti-rabbit Alexa-488 (Molecular Probes). Samples were mounted in antifade media, and were examined by fluorescent and laser-scanning confocal microscopy with a Nikon PCM 2000.

[5] = molecular target: T1, recombinant PKD1 (Homo sapiens, UniProt Q15139); test: in vitro kinase assay; type: biochemical
T1 construct: purchased Upstate Biotechnology
T1 sequence (Q15139 1-912): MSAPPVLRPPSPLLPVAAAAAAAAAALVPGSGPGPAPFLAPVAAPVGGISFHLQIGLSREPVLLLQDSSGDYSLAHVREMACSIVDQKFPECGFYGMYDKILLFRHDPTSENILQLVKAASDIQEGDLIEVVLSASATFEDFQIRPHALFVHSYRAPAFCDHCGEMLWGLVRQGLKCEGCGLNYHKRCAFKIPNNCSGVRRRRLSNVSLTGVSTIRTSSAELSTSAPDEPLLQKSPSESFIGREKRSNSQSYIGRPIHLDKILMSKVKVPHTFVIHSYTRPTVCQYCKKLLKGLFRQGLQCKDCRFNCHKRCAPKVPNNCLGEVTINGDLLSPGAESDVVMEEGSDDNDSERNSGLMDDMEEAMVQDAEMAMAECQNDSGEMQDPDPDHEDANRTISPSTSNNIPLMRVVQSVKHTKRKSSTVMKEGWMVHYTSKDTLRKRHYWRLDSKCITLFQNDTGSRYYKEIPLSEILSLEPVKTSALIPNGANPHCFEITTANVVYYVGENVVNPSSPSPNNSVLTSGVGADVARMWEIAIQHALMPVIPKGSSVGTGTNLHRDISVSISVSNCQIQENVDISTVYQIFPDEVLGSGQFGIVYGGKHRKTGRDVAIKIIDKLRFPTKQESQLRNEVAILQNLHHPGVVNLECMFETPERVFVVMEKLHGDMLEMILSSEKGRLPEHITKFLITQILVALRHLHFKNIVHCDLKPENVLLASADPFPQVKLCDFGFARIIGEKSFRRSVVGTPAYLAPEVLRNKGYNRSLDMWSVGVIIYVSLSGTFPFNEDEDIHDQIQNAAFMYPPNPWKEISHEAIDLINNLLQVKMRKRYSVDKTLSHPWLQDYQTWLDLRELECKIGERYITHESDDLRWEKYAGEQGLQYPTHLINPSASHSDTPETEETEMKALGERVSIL
Experimental: The procedure for the in vitro kinase assay was modified from a previous report (Storz et al, 2003). Briefly, recombinant PKD1 (Upstate Biotechnology) was used as the source of enzyme in 20 μl of kinase buffer (50 mM Tris/HCl, pH 7.4, 10 mM MgCl2, 2 mM dithiothreitol). The kinase reaction was carried out for 30 min at room temperature after addition of 10 μl of kinase substrate mixture (150 μM substrate peptide, 50 μM ATP, 10 μCi of [γ-^32P]ATP in kinase buffer). A PKD1-specific substrate (Santa Cruz Biotechnology) was employed as a positive control. […] The reactions were terminated by adding 100 μl of 0.75% H3PO4, and 30 μl of the mixed supernatant was spotted to P-81 phosphocellulose paper (Whatman) in triplicates. Papers were washed thoroughly three times with 0.75% phosphoric acid, once with acetone, dried, and radioactivity incorporated into the synthetic peptide was determined in a scintillation counter. Endogenous PKD1 was immunoprecipitated with an anti-PKD1 antibody (SC-935; Santa Cruz) from 786-O cells lysed in a buffer containing 137 mM NaCl, 20 mM Tris (pH 7.5), 1 mM EGTA, 1 mM EDTA, 10% (v/v) glycerol, 1% (v/v) Nonidet P-40, 1 mM vanadate, and protease inhibitor cocktail (Roche). The immune complexes were washed three times with TBS (50 mM Tris/HCl, pH 7.4, 150 mM NaCl) and subjected to in vitro kinase assays.

[6] = tested on: Sp1; test: anti-Sp1 immunoprecipitation of in vitro translated products; type: binding, rabbit; details: for Sp1 binding: produced in wheat germ extract (modification-deficient)
Experimental: (§2) Previously, it was shown that Myc displacement is mediated by the N-terminal HIF-1α (1-329), which competes with Myc for Sp1 binding in the MSH2 promoter (Koshiji et al, 2005). […] […] […] Of note, removal of part of the PAS-B from the C terminus (codon 299-329) destroyed Sp1 binding.
(§3) Immunoprecipitations and Western blot was performed essentially as described previously (Huang et al., 1998; Koshiji et al., 2005). In vitro translation and immunoprecipitations are described as before (Gu et al., 2001; Koshiji et al., 2005). […]

[7] = tested on: Sp1; test: anti-Sp1 immunoprecipitation followed by immunoblotting in HeLa cells; type: cell-based; details: for Sp1 binding: expressed ectopically in HeLa cells
Experimental: (§4) Immunoprecipitations and Western blot was performed essentially as described previously (Huang et al., 1998; Koshiji et al., 2005). In vitro translation and immunoprecipitations are described as before (Gu et al., 2001; Koshiji et al., 2005). The wheat germ extract system was purchased from Promega. λ protein phosphatase (New England Biolabs) and resveratrol (Sigma) with indicated concentrations were added to the in vitro translated products before immunoprecipitations.

[8] = molecular target: T2, Sp1 (Oryctolagus cuniculus, UniProt G1SL61); test: anti-Sp1 immunoprecipitation of in vitro translated products; type: binding, rabbit; details: for Sp1 binding: translated in rabbit reticulocyte lysate; for competition with PAS1B for Sp1 binding: in vitro translated PAS1B, peptide 10, 100 and 1000 pmol
T2 construct: from tissue; host or cells: rabbit reticulocyte lysate (in vitro translation system)
Experimental: as §2, §3

[9] = tested on: NBS1; test: NBS1 protein levels by immunoblot in U-2 OS cells expressing PAS-B variants; type: cell-based; details: forced expression in U-2 OS cells
Experimental: as §4
U-2 OS cells were transfected with the Nucleofector system (Amaxa). Briefly, 1×10^6 cells were suspended in 100 μl pre-warmed Nucleofector Solution Kit V containing 2 μg plasmids. After electroporation the cells were transferred immediately into pre-warmed complete McCoy's 5A medium and seeded in 6-well plates. Cells were harvested 48 h after transfection.

[10] = molecular target: synthetic peptide including HIF-2α residues 314-331

T2 sequence (G1SL61 1-788): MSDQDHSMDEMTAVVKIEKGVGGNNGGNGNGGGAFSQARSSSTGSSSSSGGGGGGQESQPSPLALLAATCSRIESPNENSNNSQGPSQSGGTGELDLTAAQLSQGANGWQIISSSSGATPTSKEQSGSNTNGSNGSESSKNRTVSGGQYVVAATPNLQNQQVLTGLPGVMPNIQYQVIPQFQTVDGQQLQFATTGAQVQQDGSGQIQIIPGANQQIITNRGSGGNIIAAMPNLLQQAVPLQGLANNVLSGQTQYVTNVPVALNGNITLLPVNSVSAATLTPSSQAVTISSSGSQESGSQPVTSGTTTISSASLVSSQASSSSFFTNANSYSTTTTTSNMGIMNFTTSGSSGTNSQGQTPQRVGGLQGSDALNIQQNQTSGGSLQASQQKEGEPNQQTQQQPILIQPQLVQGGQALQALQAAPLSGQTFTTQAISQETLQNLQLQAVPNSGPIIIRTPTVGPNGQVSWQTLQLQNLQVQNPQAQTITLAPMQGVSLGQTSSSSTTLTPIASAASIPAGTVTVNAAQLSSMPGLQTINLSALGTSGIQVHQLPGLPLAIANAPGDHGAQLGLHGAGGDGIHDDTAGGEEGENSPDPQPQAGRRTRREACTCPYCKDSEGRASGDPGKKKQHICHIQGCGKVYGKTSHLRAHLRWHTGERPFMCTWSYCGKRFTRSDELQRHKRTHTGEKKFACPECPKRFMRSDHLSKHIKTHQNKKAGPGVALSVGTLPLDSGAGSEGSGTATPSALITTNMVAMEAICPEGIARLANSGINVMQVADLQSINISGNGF

5′-AACAGCATCTTTGATAGCAGT-3″ [EPAS1 siRNA]
effect on NBS1 and MSH2 downregulation and PGK1 upregulation in hypoxic cells ([1]; siRNA, hypoxia 1% O2 16 h): no obvious effects | effect on hypoxic CDC25A down-regulation and PGK1 up-regulation [2]: no obvious effects | HIF-2α levels [3]: reduced specifically

CC(=O)N(O)CCCCCNC(=O)CCC(=O)N(O)CCCCCNC(=O)CCC(=O)N(O)CCCCCN [Desferrioxamine, reference compound]
intensified γ-H2AX foci ([4]; U-2 OS cells treated with desferrioxamine, versus hypoxia): much greater increase | γ-H2AX foci per cell, Mean ([4]; U-2 OS cells, desferrioxamine conditions for 72 h): 40.62 foci per cell

Oc1ccc(C=Cc2cc(O)cc(O)c2)cc1 [resveratrol, reference compound]
PKD1-mediated phosphorylation of consensus substrate peptide and HIF-2α peptide ([5]; recombinant PKD1 preincubated with resveratrol (100 μM) for 10 min): abrogated | Sp1 binding of PAS2B ([6]; 100 μM during synthesis of PAS2B in rabbit reticulocyte lysate): established Sp1 binding | PAS2B-Sp1 immunoprecipitated complexes ([7]; HeLa cells expressing PAS2B treated with 5 nM of resveratrol): yielded PAS2B-Sp1 immunoprecipitated complexes

Ac-YGRKKRRQRRRGGGVWLETQGTVIYNPRN L-NH2 [HIF-2α peptide]
phosphorylation of peptide substrate by recombinant PKD1 ([5]; 150 μM substrate peptide, 30 min, room temperature): robustly phosphorylated

HIF-2α: full-length HIF-2α, a close member of the HIF-α family
NBS1 repression ([1]; adenovirus infection 16 h): no inhibition | Sp1 binding [8]: neither full-length HIF-2α nor PAS2B exhibited Sp1-binding activity | Sp1 binding [7]: no Sp1 binding was detected

PAS1B T322E: PAS1B mutant mimicking phosphorylation at Thr-322 with glutamic acid substitution
NBS1 protein levels [9]: failed to do so | Sp1 binding [8]: lost Sp1 binding

PAS1B T322V: PAS1B with T322V mutation
Sp1 binding [8]: maintained PAS1B activity

PAS1B T327P: PAS1B with Thr-327 replaced by the HIF-2α residue proline
competition with PAS1B for Sp1 binding [8]: neither PAS2B nor the PAS1B T327P mutant was able to compete | Sp1 binding [8]: lost Sp1 binding | Sp1 binding [6]: regained binding

PAS2B T324V: PAS2B with Thr-324 mutated to valine
NBS1 protein levels [9]: gained its ability to inhibit NBS1 protein levels | γ-H2AX foci colocalized with 53BP1 ([4]; U-2 OS cells transiently expressing PAS-B variants): significantly increased | Sp1 binding [8]: established binding

PAS2B: HIF-2α PAS-B (codons 195-331)
competition with PAS1B for Sp1 binding [8]: neither PAS2B nor the PAS1B T327P mutant was able to compete | Sp1 binding [8]: neither full-length HIF-2α nor PAS2B exhibited Sp1-binding activity | Sp1 binding [6]: regained binding | Sp1 binding [7]: no Sp1 binding was detected

B1: endogenous PKD1 immunoprecipitated from 786-O cells (protein)
chain: T1 sequence (Q15139 1-912)
in vitro kinase assay with immunoprecipitated endogenous PKD1 and synthetic peptides [10]: endogenous PKD1 immunoprecipitated from 786-O cells specifically phosphorylated HIF-2α at Thr-324
